Laboratory results taken from article PMC6832134, “Discovery of Novel Integrase Inhibitors Acting outside the Active Site Through High-Throughput Screening” (Molecules, 2019).
Several values for one entry are separate records, joined by “and”; a condition that tells them apart may be missing. Equal values may be shown once. Read-outs that look alike come from different tables or passages of the source.

Assays:
HIV-1 integrase = target: T1, HIV-1 integrase (Human immunodeficiency virus type 1 group M subtype B, UniProt P12497); assay: Electrochemiluminescent integrase strand transfer assay (BioVeris), high-throughput screen; format: biochemical; details: for inhibition at 10 µM: single dose 10 µM, read-out: inhibition of IN ST activity
T1 construct: 250 nM of recombinant HIV-1 integrase; made in house; host or cells: E. coli RosettaII
Procedure: To enable a high-throughput screening, we used the ST assay developed by BioVeris. This proprietary plate-based assay measured stand transfer using electrochemiluminescent technology. First, we validated the assay using HIV-1 IN in the presence of DMSO, or increasing concentrations of a known inhibitor, MA-DKA (also known as 118-D-24, Figure 1A). […] Next, we used MA-DKA as a control in every test plate and screened a large library of molecules. Overall, 3095 compounds were tested as part of the NCI Developmental Therapeutics Program’s small molecule plated sets from the Open Chemical Repository Collection. […] A single dose testing (10 µM) enabled the identification of 130 molecules that inhibited ST by over 50% (light dashed line, Figure 1A). […] NSC153308 is a 2-phenacylsulfanylacetic acid that resembles the diketo acid chemotype. On the other side, NSC119889 is a xanthene derivative similar to V-165 [6]. […] However, the purpose of this study was to identify a new chemotype that might act on IN via a novel mechanism, distinct from known active site inhibitors. Accordingly, we retrieved the chemical structure of the 130 hits and looked for a chemical pattern different from that of conventional strand transfer inhibitors.
This electrochemiluminescent plate-based assay was performed using a BioVeris M-SERIES Analyzer (Gaithersburg, MD, USA). DNA substrates were obtained from BioVeris and used according to the manufacturer’s recommendations. Briefly, a biotinylated donor DNA was incubated for 30 min at 37 °C in the presence of 250 nM of recombinant HIV-1 integrase. Complexes were bound to paramagnetic streptavidin-coated beads (M-280 Dynabeads). After addition of the drug, the integration reaction was initiated by addition of a ruthenium-labeled target DNA. The reaction was carried out for 60 min at 37 °C, before reading on the BioVeris M-SERIES Analyzer.

HIV-1 IN [1] = target: T2, HIV-1 IN (Human immunodeficiency virus type 1 group M subtype B, UniProt P12497); design: method as in PMID 12920196; details: ref [4], read-out: IC50, ST inhibition, cited from earlier work
T2 construct: 250 nM of recombinant HIV-1 integrase; made in house; host or cells: E. coli RosettaII

HIV-1 IN [2] = target: T2, HIV-1 IN; design: method as in PMID 12920196; details: regardless of metal cofactor; ref [4]; read-out: IC50, inhibition of 3'-P; cited from earlier work
HIV-1 IN [3] = target: T2, HIV-1 IN; assay: Gel-based IN 3'-processing assay; format: biochemical; details: at least three independent experiments, read-out: In Vitro IC50 +/−SD, 3'-P
Procedure: (§1) IN reactions were carried out by adding drugs or an equivalent volume of 100% DMSO (dimethyl sulfoxide, used as the drug solvent) to a mixture of 20 nM duplex DNA (21T/21B) and 400 nM IN in 50 mM MOPS pH 7.2, 7.5 mM MgCl2, and 14 mM 2-mercaptoethanol. Reactions were performed at 37 °C for 2 h and quenched by addition of an equal volume of loading buffer [formamide containing 1% SDS (sodium dodecyl sulfate), 0.25% bromophenol blue, and xylene cyanol]. Reaction products were separated in 16% polyacrylamide denaturing sequencing gels. Dried gels were visualized using a Typhoon 8600 (GE Healthcare, Piscataway, NJ, USA). Densitometric analyses were performed using the ImageQuant 5.1 software from GE Healthcare. Data analyses (linear regression, IC50 determination, and standard deviation) were performed using Prism 6.05 software from GraphPad.

HIV-1 IN (WT) = target: T3, HIV-1 IN (WT) (Human immunodeficiency virus type 1 group M subtype B, UniProt P12497); assay: Gel-based IN strand transfer assay, WT enzyme; format: biochemical; details: gel-based assay, coupled ST, at least three independent experiments; read-out: In Vitro IC50 +/−SD, ST
T3 construct: 250 nM of recombinant HIV-1 integrase; made in house; host or cells: E. coli RosettaII
Procedure: as §1

[4] = target: T4, HIV-1 IN mutant G140S/Q148H (Human immunodeficiency virus type 1 group M subtype B, UniProt P12497, G1287S/Q1295H); assay: Gel-based IN strand transfer assay, G140S/Q148H mutant; format: biochemical
T4 construct: RAL-resistant HIV-1 mutant integrases; made in house; host or cells: E. coli RosettaII
Procedure: as §1

HIV-1 IN mutant Y143R = target: T5, HIV-1 IN mutant Y143R (Human immunodeficiency virus type 1 group M subtype B, UniProt P12497, Y1290R); assay: Gel-based IN strand transfer assay, Y143R mutant; format: biochemical
T5 construct: RAL-resistant HIV-1 mutant integrases; made in house; host or cells: E. coli RosettaII
Procedure: as §1

HIV-1 IN mutant N155H [5] = target: T6, HIV-1 IN mutant N155H (Human immunodeficiency virus type 1 group M subtype B, UniProt P12497, N1302H); assay: biochemical; format: biochemical
T6 construct: RAL-resistant HIV-1 mutant integrases; made in house; host or cells: E. coli RosettaII
Procedure: as §1

[6] = test system: VSV pseudo-typed HIV-1 virus particles; assay: organism not typed; format: cell-based; details: for EC50: read-out: Ex Vivo Antiviral Activity EC50
HIV-1 IN [7] = target: T2, HIV-1 IN; assay: Synergy test with the active site inhibitor MK-2048; format: biochemical; details: subinhibitory dose of stilbene disulfonic acid derivative; IC50 of MK-2048 not affected; data not shown
in vitro = details: human
HIV-1 IN mutant N155H [8] = assay: biochemical; format: biochemical; details: N155H vs WT, Figure 2B
Procedure: as §1

Q: For O=C(O)C(=O)CC(=O)c1cccn1Cc1ccc(F)cc1 [MA-DKA], which “inhibition of IN ST activity” value (HIV-1 integrase; at 10 µM, obtained from linear regression of the dose response in Figure 1A) is on record?
A: Its value is 94.8%.

Q: What about the IC50 (HIV-1 integrase; electrochemiluminescent plate-based assay, dose response, read-out: IC50, ST inhibition) of the same compound?
A: The IC50 was 0.163 µM.

Q: What about the IC50 (HIV-1 IN [1]; magnesium as cofactor) of the same compound?
A: Its IC50 is 0.33 µM.

Q: What about the IC50 (HIV-1 IN [1]; manganese as cofactor) of the same compound?
A: Its IC50 is 0.07 µM.

Q: What about the IC50 (HIV-1 IN [2]) of the same compound?
A: The IC50 was 70 µM.

Q: Which IC50 (HIV-1 IN [3]) does the source give for Nc1ccc(/C=C/c2ccc(N)cc2S(=O)(=O)O)c(S(=O)(=O)O)c1 [NSC163] here?
A: Its IC50 is > 111 µM.

Q: What about the IC50 (HIV-1 IN (WT)) of the same compound?
A: The IC50 was > 111 µM.

Q: Which IC50 (HIV-1 IN [3]) does the source give for Nc1ccc(/N=N/c2ccc(/C=C/c3ccc(/N=N/c4ccc(N)c5ccc(S(=O)(=O)O)cc45)cc3S(=O)(=O)O)c(S(=O)(=O)O)c2)c2cc(S(=O)(=O)O)ccc12 [NSC34933] here?
A: The IC50 was 1.1 ± 0.3 µM.

Q: What about the IC50 (HIV-1 IN (WT)) of the same compound?
A: The IC50 was 0.5 ± 0.2 µM.

Q: What about the IC50 [4] of the same compound?
A: Its IC50 is 0.32 µM.

Q: What about the IC50 (HIV-1 IN mutant Y143R) of the same compound?
A: Its IC50 is 0.095 µM.

Q: And the IC50 (HIV-1 IN mutant N155H [5])?
A: Its IC50 is 0.091 µM.

Q: What about the “Selectivity Index SI” value [6] of the same compound?
A: The value was >166.

Q: And the EC50 [6]?
A: Its EC50 is 0.6 µM.

Q: What about the “synergy with active site inhibitor MK-2048” value (HIV-1 IN [7]) of the same compound?
A: Its value is “could not see any cooperative effect”.

Q: What about the CC50 (in vitro) of the same compound?
A: Its CC50 is > 100 µM.

Q: With CCOc1ccc(/N=N/c2ccc(/C=C/c3ccc(/N=N/c4ccc(OCC)cc4)cc3S(=O)(=O)O)c(S(=O)(=O)O)c2)cc1 [NSC47745] as the compound, how does the IC50 (HIV-1 IN [3]) read?
A: Its IC50 is ~3 µM and 3.2 µM.

Q: What about the IC50 (HIV-1 IN (WT)) of the same compound?
A: Its IC50 is ~3 µM and 3.1 µM.

Q: And the “Selectivity Index SI” value [6]?
A: Its value is >6.5.

Q: And the EC50 [6]?
A: Its EC50 is 15.3 µM.

Q: And the CC50 (in vitro)?
A: The CC50 was > 100 µM.

Q: Which inhibition at 10 µM (HIV-1 integrase) does the source give for O=C(Nc1ccc(Sc2ccc(/N=N/c3c(O)c(S(=O)(=O)O)cc4cc(S(=O)(=O)O)ccc34)cc2)cc1)c1ccc(/N=N/c2c(O)ccc3c(S(=O)(=O)O)cc(S(=O)(=O)O)cc23)cc1 [NSC76027] here?
A: The inhibition at 10 µM was 62.8%.

Q: With O=C(O)c1c(Br)c(Br)c(Br)c(Br)c1C1c2ccc(O)cc2Oc2cc(O)ccc21 [NSC119889] as the compound, how does the inhibition at 10 µM (HIV-1 integrase) read?
A: The inhibition at 10 µM was 98.5%.

Q: With O=C(O)CSCC(=O)c1ccccc1 [NSC153308] as the compound, how does the inhibition at 10 µM (HIV-1 integrase) read?
A: The inhibition at 10 µM was 99.5%.

Q: With O=[N+]([O-])c1ccc(/C=C/c2ccc([N+](=O)[O-])cc2S(=O)(=O)O)c(S(=O)(=O)O)c1 [NSC163175] as the compound, how does the IC50 (HIV-1 IN [3]) read?
A: The IC50 was > 111 µM.

Q: What about the IC50 (HIV-1 IN (WT)) of the same compound?
A: Its IC50 is > 111 µM.

Q: For O=S(=O)(O)c1cc(/N=N/c2cc(S(=O)(=O)O)c3cccnc3c2O)ccc1/C=C/c1ccc(/N=N/c2cc(S(=O)(=O)O)c3cccnc3c2O)cc1S(=O)(=O)O [NSC638352], which inhibition at 10 µM (HIV-1 integrase) is on record?
A: The inhibition at 10 µM was 67.2%.

Q: With Cc1nnc(C(=O)NC(C)(C)c2nc(C(=O)NCc3ccc(F)cc3)c(O)c(=O)n2C)o1 [RAL, raltegravir, reference compound] as the compound, how does the “loss of potency compared to the WT enzyme” value (HIV-1 IN mutant N155H [8]) read?
A: Its value is “one to two orders of magnitude”.
